{"source": "ChEMBL document CHEMBL1201862", "about": "“PubChem BioAssay data set” (2004)", "key": {"[1]": {"target": "T1, Rac GTPase-activating protein 1 (Homo sapiens, UniProt Q9H0H5)", "T1 sequence (Q9H0H5 whole entry)": "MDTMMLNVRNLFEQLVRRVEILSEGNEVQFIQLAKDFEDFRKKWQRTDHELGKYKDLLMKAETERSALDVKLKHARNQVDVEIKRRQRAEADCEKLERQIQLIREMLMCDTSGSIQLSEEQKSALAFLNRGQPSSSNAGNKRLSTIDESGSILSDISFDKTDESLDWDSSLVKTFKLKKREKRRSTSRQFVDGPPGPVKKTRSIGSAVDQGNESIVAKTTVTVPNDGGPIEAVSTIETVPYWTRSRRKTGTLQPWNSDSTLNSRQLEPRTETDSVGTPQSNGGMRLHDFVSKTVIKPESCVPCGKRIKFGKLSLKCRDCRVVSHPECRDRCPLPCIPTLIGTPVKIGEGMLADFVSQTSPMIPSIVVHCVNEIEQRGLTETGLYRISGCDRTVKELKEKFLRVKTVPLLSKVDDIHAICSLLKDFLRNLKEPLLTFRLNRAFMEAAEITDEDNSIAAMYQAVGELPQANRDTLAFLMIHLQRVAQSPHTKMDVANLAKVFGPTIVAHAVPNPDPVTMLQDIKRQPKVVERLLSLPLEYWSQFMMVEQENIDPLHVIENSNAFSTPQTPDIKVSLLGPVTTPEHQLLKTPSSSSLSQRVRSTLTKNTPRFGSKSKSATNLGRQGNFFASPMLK", "experiment": "MgcRacGAP GTPase-activating activity inhibitors, confirmation, biochemical, ADP Hunter fluorescence, primary and confirmatory (AID 624330)", "assay_type": "functional"}, "Nonstructural protein 1": {"target": "Nonstructural protein 1 (Influenza A virus, UniProt Q194T2)", "sequence (Q194T2 whole entry)": "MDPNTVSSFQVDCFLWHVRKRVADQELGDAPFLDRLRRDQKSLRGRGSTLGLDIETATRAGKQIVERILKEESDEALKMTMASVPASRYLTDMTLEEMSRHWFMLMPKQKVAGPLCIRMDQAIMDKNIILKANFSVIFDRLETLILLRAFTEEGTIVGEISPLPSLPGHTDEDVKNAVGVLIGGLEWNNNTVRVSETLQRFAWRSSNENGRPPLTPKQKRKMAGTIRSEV", "assay_type": "functional, Influenza A virus (A/California/07/2009(H1N1))"}, "[2]": {"target": "T2, Corticotropin-releasing factor receptor 2/Corticotropin-releasing factor-binding protein (Homo sapiens, UniProt P24387+Q13324)", "T2 sequence (Q13324 whole entry)": "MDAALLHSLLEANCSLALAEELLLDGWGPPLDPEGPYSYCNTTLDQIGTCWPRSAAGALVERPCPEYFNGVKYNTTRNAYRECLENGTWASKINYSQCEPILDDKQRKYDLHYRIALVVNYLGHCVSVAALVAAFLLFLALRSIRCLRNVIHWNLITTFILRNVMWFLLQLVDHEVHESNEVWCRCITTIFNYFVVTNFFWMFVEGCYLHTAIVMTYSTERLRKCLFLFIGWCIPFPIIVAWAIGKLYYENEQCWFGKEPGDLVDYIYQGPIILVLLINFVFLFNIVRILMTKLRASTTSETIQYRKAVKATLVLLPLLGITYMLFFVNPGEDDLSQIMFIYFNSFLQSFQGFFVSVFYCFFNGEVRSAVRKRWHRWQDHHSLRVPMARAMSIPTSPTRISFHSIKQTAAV", "T2 sequence (P24387 whole entry)": "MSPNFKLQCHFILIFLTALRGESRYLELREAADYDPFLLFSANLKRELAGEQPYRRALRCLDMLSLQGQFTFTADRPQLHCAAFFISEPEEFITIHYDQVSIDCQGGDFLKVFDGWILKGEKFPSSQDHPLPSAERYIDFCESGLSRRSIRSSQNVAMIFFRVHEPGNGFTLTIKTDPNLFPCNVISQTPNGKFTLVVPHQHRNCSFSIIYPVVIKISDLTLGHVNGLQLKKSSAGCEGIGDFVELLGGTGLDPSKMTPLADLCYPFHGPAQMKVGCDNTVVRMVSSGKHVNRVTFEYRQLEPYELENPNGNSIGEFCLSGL", "experiment": "Dose Response confirmation of uHTS hits for small molecule antagonists of the CRF-binding protein and CRF-R2 receptor complex.", "assay_type": "functional", "details": "read-out: IC50_Mean"}, "[3]": {"target": "T2, Corticotropin-releasing factor receptor 2/Corticotropin-releasing factor-binding protein", "experiment": "activators of CRF receptor 2 with binding protein – uHTS hits, confirmation (AID 602473)", "assay_type": "functional", "details": "read-out: EC50_Mean"}, "Protein skinhead-1": {"target": "T3, Protein skinhead-1 (Caenorhabditis elegans, UniProt P34707)", "T3 sequence (P34707 whole entry)": "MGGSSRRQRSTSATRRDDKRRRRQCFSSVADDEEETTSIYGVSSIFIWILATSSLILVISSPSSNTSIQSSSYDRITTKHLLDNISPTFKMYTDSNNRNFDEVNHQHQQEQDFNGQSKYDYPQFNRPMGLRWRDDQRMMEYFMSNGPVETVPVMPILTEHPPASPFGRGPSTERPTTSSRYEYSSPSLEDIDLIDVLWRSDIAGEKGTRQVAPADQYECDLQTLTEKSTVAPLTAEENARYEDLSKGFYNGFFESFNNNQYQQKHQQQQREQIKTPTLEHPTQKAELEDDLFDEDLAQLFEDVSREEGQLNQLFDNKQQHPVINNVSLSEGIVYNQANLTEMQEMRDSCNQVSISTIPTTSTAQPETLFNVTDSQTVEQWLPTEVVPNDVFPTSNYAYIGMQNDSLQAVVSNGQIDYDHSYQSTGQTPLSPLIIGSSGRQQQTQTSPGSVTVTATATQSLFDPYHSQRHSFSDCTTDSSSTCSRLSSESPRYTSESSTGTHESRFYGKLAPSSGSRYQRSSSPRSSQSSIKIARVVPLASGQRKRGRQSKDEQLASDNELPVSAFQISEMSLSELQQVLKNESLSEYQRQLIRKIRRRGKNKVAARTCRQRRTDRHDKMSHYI", "assay_type": "functional"}, "[4]": {"target": "T4, Ubiquitin-conjugating enzyme E2 N (Homo sapiens, UniProt P61088)", "T4 sequence (P61088 whole entry)": "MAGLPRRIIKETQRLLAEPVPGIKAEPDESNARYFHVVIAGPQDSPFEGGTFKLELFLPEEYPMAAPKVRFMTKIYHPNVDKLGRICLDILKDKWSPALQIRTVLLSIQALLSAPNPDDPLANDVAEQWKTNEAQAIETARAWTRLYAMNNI", "assay_type": "functional"}, "[5]": {"experiment": "NIH-3T3 fibroblast cytotoxicity, dose response, cytotoxicity control, cell-based, fluorescence, Alamar Blue, secondary assay (AID 2327);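 further: NIH-3T3 mouse fibroblasts cultured with fluconazole at 8 µg/mL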", "assay_type": "functional"}, "[6]": {"tested_on": "Streptococcus sp. 'group A'", "experiment": "growth inhibition of control SK(-) GAS strain, dose response, counter-screen for streptokinase expression inhibitor project, luminescence, kanamycin, BacTiterGlo, confirmation (AID 1900)", "assay_type": "functional, organism-based"}, "Streptokinase A": {"target": "T5, Streptokinase A (Streptococcus pyogenes serotype M1, UniProt P10520)", "T5 sequence (P10520 whole entry)": "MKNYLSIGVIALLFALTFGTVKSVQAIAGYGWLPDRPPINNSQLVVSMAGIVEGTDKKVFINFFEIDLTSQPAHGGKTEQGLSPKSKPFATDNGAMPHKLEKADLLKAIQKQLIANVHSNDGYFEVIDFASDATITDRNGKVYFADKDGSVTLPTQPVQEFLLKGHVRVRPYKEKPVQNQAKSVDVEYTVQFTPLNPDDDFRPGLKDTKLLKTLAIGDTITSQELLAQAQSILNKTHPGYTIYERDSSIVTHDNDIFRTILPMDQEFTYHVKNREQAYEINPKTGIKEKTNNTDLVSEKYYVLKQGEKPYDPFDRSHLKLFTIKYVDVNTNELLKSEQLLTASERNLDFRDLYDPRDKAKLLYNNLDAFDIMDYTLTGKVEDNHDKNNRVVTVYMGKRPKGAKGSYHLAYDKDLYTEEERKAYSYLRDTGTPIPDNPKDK", "experiment": "S. pyogenes streptokinase expression inhibitors, potency, dose response, plasminogen activation absorbance, OD405 (AID 1914);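 further: secreted streptokinase activity via plasminogen activation per viability signal from cell pellet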", "assay_type": "functional, Streptococcus pyogenes M1 GAS"}, "[7]": {"experiment": "C. albicans growth with fluconazole, confirmation, fluorescence, retest (AID 2467)", "assay_type": "functional, cell-based"}, "Streptococcus": {"tested_on": "Streptococcus", "experiment": "Group A Streptococcus viability loss, dose response, counter-screen for streptokinase expression inhibitor project, luminescence, BacTiterGlo (AID 1915);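 further: potency for reduction of bacterial viability or growth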", "assay_type": "functional, organism-based"}}, "note": "Active and inactive are the calls of the source.", "data": [{"molecule": "COC(=O)c1cc(NCc2ccccc2F)ccc1N1CCOCC1", "values": [{"measurement": "IC50", "setting": "[1]", "result": "168 µM (active)"}]}, {"molecule": "COc1ccc(C(CCNCc2ccc(N(C)C)cc2)C(C)C)cc1", "note": "(configuration not stated)", "values": [{"measurement": "IC50", "setting": "Nonstructural protein 1", "result": "39.1 µM (active)"}]}, {"molecule": "Cc1cc(C)nc(SCc2nnc(SCc3ccc([N+](=O)[O-])cc3)n2Cc2ccco2)n1", "values": [{"measurement": "IC50", "setting": "[2]", "result": "> 47.1 µM (inactive)"}, {"measurement": "EC50", "setting": "[3]", "result": "> 53 µM (inactive)"}]}, {"molecule": "Nc1cccc2c1C(=O)c1ccc(Cl)cc1C2=O", "values": [{"measurement": "IC50", "setting": "Nonstructural protein 1", "result": "24.6 µM (active)"}, {"measurement": "IC50", "setting": "Protein skinhead-1", "result": "> 100 µM (inactive)"}]}, {"molecule": "C#CCOCCOCCOCCNc1nc(N2CCOCC2)nc(N2CCN(C(=O)CCCCCCCCCCNC(=O)[C@H](CO)n3cc(CCCCCN)nn3)CC2)n1", "values": [{"measurement": "IC50", "setting": "[4]", "result": "> 20 µM (inactive)"}]}, {"molecule": "COc1cc(-c2nc3cnccn3c2Nc2ccc(C)cc2)ccc1O", "values": [{"measurement": "IC50", "setting": "[1]", "result": "29.3 µM (active)"}]}, {"molecule": "c1ccc(-c2ccc(SCc3cccnc3)nn2)nc1", "values": [{"measurement": "IC50", "setting": "Nonstructural protein 1", "result": "5.07 µM (active)"}]}, {"molecule": "COc1cc(OC)c2c(c1C(CCN1CCOCC1)c1ccc(N(C)C)cc1)OC(=O)CC2c1ccc(N(C)C)cc1", "note": "(configuration not stated)", "values": [{"measurement": "IC50", "setting": "Nonstructural protein 1", "result": "14.5 µM (active)"}]}, {"molecule": "COc1ccc(F)cc1S(=O)(=O)NCC(=O)NCc1cc(=O)n(C)c(=O)n1C", "values": [{"measurement": "IC50", "setting": "[2]", "result": "> 47.1 µM (inactive)"}, {"measurement": "EC50", "setting": "[3]", "result": "> 53 µM (inactive)"}]}, {"molecule": "O=C(COc1ccccc1)N1CCN(C2CCCC2)CC1", "values": [{"measurement": "IC50", "setting": "[1]", "result": "127 µM (active)"}]}, {"molecule": "CCCC(=O)NC(=S)Nc1cccc2c(O)cccc12", "values": [{"measurement": "IC50", "setting": "[1]", "result": "47.7 µM (active)"}]}, {"molecule": "CCCCCc1cc(=O)oc2c(C(CCN3CCCC3)c3cc(OC)c(OC)c(OC)c3)c(OC)cc(OC)c12", "note": "(configuration not stated)", "values": [{"measurement": "IC50", "setting": "[4]", "result": "> 20 µM (inactive)"}]}, {"molecule": "O=C1NC2(CCCCCC2)N=C1c1ccc(Br)cc1", "values": [{"measurement": "IC50", "setting": "[4]", "result": "> 20 µM (inactive)"}]}, {"molecule": "CCOc1ccc(N)cc1OC", "values": [{"measurement": "IC50", "setting": "[1]", "result": "42.9 µM (active)"}]}, {"molecule": "CCOC(=O)C1=C(c2ccccc2)O/C(=C(\\C(=O)OC)C(F)(F)F)S1", "values": [{"measurement": "IC50", "setting": "[4]", "result": "> 20 µM (inactive)"}]}, {"molecule": "Cc1ccccc1CN1CCC(CNC(=O)C2CCCN(c3ncnc4c3nc3n4CCCCC3)C2)CC1", "note": "(configuration not stated)", "values": [{"measurement": "IC50", "setting": "[4]", "result": "> 20 µM (inactive)"}]}, {"molecule": "Cc1ncc(CO)c(/C=N/NC(=S)Nc2ccc(Cl)c(Cl)c2)c1O", "values": [{"measurement": "EC50", "setting": "[5]", "result": "45.4 µM (inconclusive)"}, {"measurement": "EC50", "setting": "[6]", "result": "4.1 µM (active)"}, {"measurement": "EC50", "setting": "Streptokinase A", "result": "> 150 µM (not active)"}, {"measurement": "EC50", "setting": "[7]", "result": "> 38 µM (not active)"}, {"measurement": "EC50", "setting": "Streptococcus", "result": "91.4 µM (active)"}, {"measurement": "IC50", "setting": "[4]", "result": "> 20 µM (inactive)"}]}, {"molecule": "CCOc1cccc(/C=N/NC(=S)NCCN2CCOCC2)c1O", "values": [{"measurement": "IC50", "setting": "Nonstructural protein 1", "result": "16.5 µM (active)"}]}, {"molecule": "O=C(COc1cccc2c1CCN(Cc1ccc(Br)cc1)C2=O)NCc1ccco1", "values": [{"measurement": "IC50", "setting": "[2]", "result": "> 47.1 µM (inactive)"}, {"measurement": "EC50", "setting": "[3]", "result": "> 53 µM (inactive)"}]}, {"molecule": "COC(=O)C1=C(C)N(Cc2ccccc2)C(NCc2cc(OC)c(OC)c(OC)c2)=N[C@H]1c1ccc(Br)cc1", "values": [{"measurement": "IC50", "setting": "[4]", "result": "> 20 µM (inactive)"}]}, {"molecule": "OCCN1CCN(Cc2ccc3ccccc3c2)CC1", "values": [{"measurement": "IC50", "setting": "[1]", "result": "95.6 µM (active)"}]}, {"molecule": "N#CCSc1nc2sccc2c(=O)n1-c1ccccc1", "values": [{"measurement": "IC50", "setting": "[2]", "result": "> 47.1 µM (inactive)"}, {"measurement": "EC50", "setting": "[3]", "result": "> 53 µM (inactive)"}]}]}
